{"source": "patent US20120277211A1", "about": "“METHODS AND COMPOSITIONS FOR THE TREATMENT OF PSYCHOTIC DISORDERS THROUGH THE IDENTIFICATION OF THE SULT4A1-1 HAPLOTYPE” (priority 2009, published 2012)", "key": {"[1]": {"system": "African American schizophrenia patients", "assay": "CATIE: change in total PANSS (LOCF) by SULT4A1-1 haplotype status, African Americans", "type": "in vivo, human", "settings": "for Number of individuals with change in total PANSS ≦−20% (responders) / Number of individuals with change in total PANSS ≧−20% (non-responders): LOCF", "procedure": "The design of the CATIE study has been described in detail by others (Lieberman et al., 2005; Stroup et al., 2003). […] A total of 738 subjects consented to provide DNA for genetic study. […] Retrospective genetic analyses, judged to be exempt from human studies requirements by an IRB, were conducted in the current study. All tested patients were studied using well established clinical endpoints comparing baseline, intermediate, and last observation carried forward (LOCF) for the PANSS scores using CATIE data. […] To remove time on drug as a variable for the CATIE trial, analysis was limited to only those patients who were randomized to a different drug following the initial washout period (drug switchers)."}, "[2]": {"system": "Caucasian schizophrenia patients", "assay": "CATIE: time to discontinuation for all causes by SULT4A1-1 status", "type": "in vivo, human", "text": "The primary endpoint for the CATIE study was time to discontinuation for all causes (Lieberman et al., 2005). Thus the inventors evaluated the effect of SULT41-1 status on this important parameter."}, "[3]": {"system": "schizophrenia patients", "assay": "CATIE: months of successful treatment measured by the CGI scale (TMSUCC1)", "type": "in vivo, human", "text": "The CATIE clinical data set included Clinical Global Impression (CGI) Scale, an observer-provided assessment of the psychiatric health of the patient (Stroup et al., 2003; Guy 1976). Patients are rated with the CGI Scale from 1 to 7, with higher scores indicating greater severity of illness. The CATIE study provided a response variable that measured the time (in months) of successful treatment as measured by the CGI scale (“TMSUCC1” in the CATIE data)."}, "[4]": {"system": "Caucasian schizophrenia patients", "assay": "CATIE: hospitalization due to exacerbation of psychosis by SULT4A1-1 status", "type": "in vivo, human", "text": "To assess if SULT4A1-1 status impacts the risk of hospitalization in Caucasians, the inventors assigned SULT4A1-1 status to each CATIE subject and evaluated hospitalization events due to exacerbation of psychosis. For this analysis, the inventors assigned a dichotomous value (positive or negative) for hospitalization status to subjects in each phase of the trial based on only the first hospitalization event for a given patient in that phase. Patients participating in Phases 1, 2, and/or 3 were included in the totals for the appropriate drug.\nA Kaplan-Meier survival analysis was performed to determine whether there was a difference between the survival (hospitalization) rates for the SULT4A1-1 negative and SULT4A1-1 positive patient populations treated with each of the atypical antipsychotics. Survival plots model the fraction of the population that survived (i.e., no hospitalization event) as a function of time."}, "[5]": {"system": "schizophrenia patients", "description": "For the analyses shown in Tables 22-24, SULT4A1-1 haplotype status was assigned as describe in Example 3, and standard statistical survival analysis using Cox's proportional hazards model was used to determine the relative risk (hazard) of discontinuing drug use. The Hazard Ratio (HR) measures the risk of an event (in this case, switching or discontinuation from the drug) relative to patient exposure or status (in this case, SULT4A1-1 positive status).\nAs describe in Example 11, Hazard Ratio (HR) measures the risk of an event (in this case, switching or discontinuation from the drug) relative to patient exposure or status (in this case, SULT4A1-1 status)."}, "[6]": {"system": "schizophrenia patients", "settings": "Phase II; for Responders: decrease PANSS ≧20%, LOCF"}, "[7]": {"system": "unsegmented patient populations", "settings": "cited from earlier work"}, "[8]": {"settings": "SULT4A1-1 negative risperidone / SULT4A1-1 negative all other drugs"}, "[9]": {"settings": "Unsegmented risperidone / Unsegmented all other drugs"}}, "note": "Read-outs that look alike come from different tables or passages of the source. Marks after values point to notes of the source that are not given here.", "data": [{"smiles": "Cc1nc2n(c(=O)c1CCN1CCC(c3noc4cc(F)ccc34)CC1)CCCC2", "note": "[Risperidone]", "values": [{"measurement": "Number of individuals with change in total PANSS ≦−20% (responders)", "setting": "[1]; SULT4A1-1 negative", "value": 7}, {"measurement": "Number of individuals with change in total PANSS ≧−20% (non-responders)", "setting": "[1]; SULT4A1-1 negative", "value": 34}, {"measurement": "Responders", "setting": "[1]; SULT4A1-1 positive", "value": 60, "unit": "%"}, {"measurement": "Number of individuals with change in total PANSS ≦−20% (responders)", "setting": "[1]; SULT4A1-1 positive", "value": 3}, {"measurement": "Number of individuals with change in total PANSS ≧−20% (non-responders)", "setting": "[1]; SULT4A1-1 positive", "value": 2}, {"measurement": "Time to discontinuation, mean", "setting": "[2]; SULT4A1-1 negative", "value": 11.3, "unit": "Months"}, {"measurement": "Time to discontinuation, mean", "setting": "[2]; SULT4A1-1 positive", "value": "8.0*** Months"}, {"measurement": "Length of successful treatment (CGI Months), Mean", "setting": "[3]; SULT4A1-1 negative", "value": 6.88, "unit": "Months"}, {"measurement": "Length of successful treatment (CGI Months), Mean", "setting": "[3]; SULT4A1-1 positive", "value": 1.76, "unit": "Months"}, {"measurement": "Length of successful treatment (CGI Months), Mean", "setting": "[3]; Unsegmented", "value": 5.79, "unit": "Months"}, {"measurement": "HOSP, number of patients hospitalized", "setting": "[4]; SULT4A1-1 negative", "value": 16}, {"measurement": "HOSP, rate of hospitalization", "setting": "[4]; SULT4A1-1 negative", "value": 13, "unit": "%"}, {"measurement": "HOSP, number of patients hospitalized", "setting": "[4]; SULT4A1-1 positive", "value": 4}, {"measurement": "HOSP, rate of hospitalization", "setting": "[4]; SULT4A1-1 positive", "value": 11.1, "unit": "%"}, {"measurement": "HOSP, rate of hospitalization", "setting": "[4]; Unsegmented", "value": 12.6, "unit": "%"}, {"measurement": "HOSP, number of patients hospitalized", "setting": "[4]; Unsegmented, Phases 1, 2 and/or 3, first event", "value": 20}, {"measurement": "Kaplan-Meier: difference between survival (no hospitalization) rates of SULT4A1-1 negative and positive patients", "setting": "[4]; per drug", "value": "not statistically significant"}, {"measurement": "HR, all-cause discontinuation", "setting": "[5]; [8]", "value": "0.79^a"}, {"measurement": "HR, discontinuation due to lack of efficacy", "setting": "[5]; [8]", "value": "0.88^a"}, {"measurement": "HR, all-cause discontinuation", "setting": "[5]; SULT4A1-1 positive risperidone / SULT4A1-1 positive all other drugs", "value": "1.48^a"}, {"measurement": "HR, all-cause discontinuation", "setting": "[5]; [9]", "value": "0.91^a"}, {"measurement": "HR, discontinuation due to lack of efficacy", "setting": "[5]; [9]", "value": "1.09^a"}, {"measurement": "% Responders", "setting": "[6]; SULT4A1-1 Negative", "value": 33.3, "unit": "%"}, {"measurement": "Nonresponders", "setting": "[6]; SULT4A1-1 Negative", "value": 8}, {"measurement": "Responders", "setting": "[6]; SULT4A1-1 Negative", "value": 4}, {"measurement": "% Responders", "setting": "[6]; SULT4A1-1 Positive", "value": 0, "unit": "%"}, {"measurement": "Nonresponders", "setting": "[6]; SULT4A1-1 Positive", "value": 1}, {"measurement": "Responders", "setting": "[6]; SULT4A1-1 Positive", "value": 0}, {"measurement": "Effect Size vs. FGA", "setting": "[7]; first generation antipsychotics, Davis et al. (2003)", "value": "−0.25"}, {"measurement": "Effect Size vs. Placebo", "setting": "[7]; meta-analysis, Leucht et al. (2009), negative = greater reduction in PANSS", "value": "−0.59"}, {"measurement": "Mean difference in total PANSS score between olanzapine and labelled drug, Meta-analysis", "setting": "[7]; unsegmented populations, Leucht et al. (2009)", "value": "−1.9"}]}]}
